Data reported in a melting point compilation (Tetko et al.; mined from patent text by program, amines drawn as free bases though some values may be those of a salt).

`CC(C)NC1=NS(=O)(=O)c2sc(Br)c(Br)c2N1` gave a melting point of 250 to 251 °C.
In the case of `Cc1nnc(NC(C)C)s1`, the melting point was 145 °C.
In the case of `CC(F)C(C)(N)C(N)=O` (stereo not given), the melting point was 81 °C.
`COc1ccccc1-n1c(=O)[nH]c2c(C(N)=O)nc(-c3ccc4[nH]c(SC)nc4c3)nc21` showed a melting point of 244 to 245 °C.
For `C#CCn1ccc2ccccc2c1=O`, the melting point was 104 to 105 °C.
Work on `Cc1cccc(NCCC#N)c1C` yielded a melting point of 65.5 to 67 °C.
Molecule `CC12CC(=O)C3C(CCC4CC(=O)CCC43C)C1CCC2C(=O)CBr` (stereo not given) has a melting point of 170 °C.
`OC(CCN1CCN(c2ccccc2)CC1)COc1ccccc1Cl` (stereo not given) gave a melting point of 100 to 102 °C.
In the case of `C#CCOC(=O)Cn1cccc1-c1nc(-c2ccc(OC)cc2)c(-c2ccc(OC)cc2)s1`, the melting point was 100 to 103 °C.
`COc1cc(C=CC(=O)Cc2ccccc2)ccc1O` gave a melting point of 85 to 87 °C.
In the case of `COC(=O)c1cc(-c2nc(COc3ccc(CCl)cc3OC)c(C)o2)ccc1C`, the melting point was 139 to 140 °C.
`CC(=O)C(=C1SCCCN1C(C)=O)[N+](=O)[O-]` gave a melting point of 73.5 to 76 °C.
For `CC1Oc2ccc(Br)c(C=NO)c2O1` (stereo not given), the melting point was 208 to 209 °C.
With `COc1ccccc1N1CCN(CCCCCS(=O)(=O)c2cccc3c(=O)c(C)c(-c4ccccc4)oc23)CC1` the melting point was 120 to 123 °C.
`NS(=O)(=O)c1ccc(-c2cc(-c3nc(-c4ccc(C(F)(F)F)cc4)cc(C(F)F)n3)ccn2)s1` showed a melting point of 242 °C.
Work on `CC(C)[C@@H](Cc1ccc(C(C)(C)C)cc1)C(=O)N1C(=O)OC[C@H]1Cc1ccccc1` yielded a melting point of 124 °C.
In the case of `CS(=O)(=O)c1ccc(Oc2cc(OCc3ccccc3)c3[nH]c(C4=NCC(CCO)S4)cc3c2)cc1` (stereo not given), the melting point was 97 to 98 °C.
In the case of `CN1CCC(NC2=Nc3ccccc3Cn3nnnc32)CC1`, the melting point was 112 to 114 °C.
With `CCCC1=C(C(=O)OCC)C(c2ccccc2OC)c2c[nH]nc2N1` (stereo not given) the melting point was 169 °C.
`COc1ccccc1NC(=O)Nc1nc(N2CCOCC2)nc(N(CCC(=O)O)Cc2cccc(C)c2)n1` showed a melting point of 101 to 102 °C.
`CSc1ccc(C=CC(=O)c2ccc(Br)cc2)cc1` gave a melting point of 161 °C.
Molecule `COc1c([N+](=O)[O-])ccc(N)c1Cl` has a melting point of 118 to 123 °C.
Work on `COC(=O)C(=O)c1ccc(OC/C=C/c2ccc(F)cc2)cc1` yielded a melting point of 84 to 85 °C.
In the case of `CCOC(=O)c1cn(C2CC2)c2c(F)c(Br)c(F)c(F)c2c1=O`, the melting point was 187 to 189 °C.
Work on `COc1ccc(CC(=O)Nc2cc(-c3c(-c4cccc(C)c4)nc4cccnn34)ccn2)cc1` yielded a melting point of 213 to 214 °C.
In the case of `COc1ccc2c(c1)CN(C(=O)CN1CCCC1)N=C2Cc1c(Cl)cncc1Cl`, the melting point was 148 to 150 °C.
Molecule `Cc1ccc(Oc2ccncc2[N+](=O)[O-])cn1` has a melting point of 87 to 90 °C.
Work on `CC(C)c1cc(C(=O)Nc2ccc(C(=O)O)cn2)oc1C(C)C` yielded a melting point of 278 to 279 °C.
`C#CCNc1cc(F)c([N+](=O)[O-])cc1[N+](=O)[O-]` gave a melting point of 113 to 115 °C.
`CC1(C)CC(=O)c2c(NCc3ccco3)sc(-c3cc[nH]n3)c2C1` gave a melting point of 204 to 206 °C.
With `Nc1cccc(-n2c(=O)c(CCC(O)c3ccncc3)cc3cccnc32)c1` (stereo not given) the melting point was 209 to 211 °C.
With `CS(=O)(=O)c1ccccc1-c1ccn[nH]c1=O` the melting point was 123 to 125 °C.
Molecule `O=C(NC(=O)c1c(F)cccc1F)Nc1cc(Cl)c(OC(F)(F)C(F)Cl)cc1Cl` (stereo not given) has a melting point of 177 to 179 °C.
For `CN(C)C1CCC(c2cc3ccccc3c(=O)[nH]2)CC1` (stereo not given), the melting point was 256 to 258 °C.
`CCCCCCCSc1ccc(-c2ccc(C#N)cc2)cc1` showed a melting point of 64.4 °C.
`COC1=NS(=O)(=O)N(C)C(Oc2ccc([N+](=O)[O-])cc2)=N1` showed a melting point of 220 to 221 °C.
`Cc1noc(C)c1Cn1nnnc1-c1cccc(Cl)c1Cl` showed a melting point of 176 to 178 °C.
`COc1ccc(-c2ccc3c(F)c(OC)ccc3c2)cc1` gave a melting point of 150 to 155 °C.
For `CC(C)c1nn(-c2nc3ccccc3s2)c(-c2ccc(F)cc2)c1C=CC1CC(O)CC(=O)O1` (stereo not given), the melting point was 168 to 170 °C.
In the case of `CCNC(=O)c1c(NC(=O)c2cc(C(F)(F)F)nn2-c2ncccc2Cl)c(C)cc2nc(C)ccc12`, the melting point was greater than 230 °C.
With `CN1C(=O)[C@@H](CN2CCCCC2)C[C@H]1c1ccc(Br)s1` the melting point was 69 to 71 °C.
Work on `CC(C#N)c1cc([N+](=O)[O-])ccc1F` (stereo not given) yielded a melting point of 55 to 56 °C.
Work on `OCCN(Cc1ccc2ccccc2c1)C1(c2nccc3sccc23)CCNCC1` yielded a melting point of 53 to 55 °C.
With `O=C1NC(OC(=O)c2ccccc2)C2=C1c1ccc(Cl)cc1C(c1ccccc1Cl)=NC2` (stereo not given) the melting point was 140 to 142 °C.
With `O=C1OCCC12Oc1ccccc1C2=O` (stereo not given) the melting point was 111 to 112 °C.
In the case of `OCCN1CCC(=C2c3ccccc3Oc3ccc(Br)cc32)CC1`, the melting point was 142 to 146 °C.
`Nc1nc2ccc(Oc3ccc(F)cc3)cc2s1` gave a melting point of 126 to 128 °C.
Work on `Cc1cc(C2=NOC(c3cc(Cl)cc(Cl)c3)(C(F)(F)F)C2)ccc1C(=O)Nc1ncc(Br)cn1` (stereo not given) yielded a melting point of 178 to 181 °C.
Work on `Cn1cc(C(=O)NCc2ccc(Cl)cc2)c(=O)c2cc(CC3CCOCC3)ccc21` yielded a melting point of 219 to 221 °C.
For `CCOC(=O)C(C)=C(C)NC(=O)Nc1cc(C(=O)OC(C)C)c(Cl)cc1F`, the melting point was 145 to 147 °C.
`O=C(Nc1ccc(C(=O)N2Cc3ccccc3Cc3ccccc32)cc1)c1cccc(Cl)c1Cl` showed a melting point of 225 to 230 °C.
Work on `COc1ccc(C(=O)O)cc1OC1C=CCC1` (stereo not given) yielded a melting point of 160 to 163 °C.
For `Cc1ccc(S(=O)(=O)NC(=O)OCCc2ccc(-n3c(CCCc4ccccc4)nc4c(C)nc(C)cc43)cc2)cc1`, the melting point was 175 °C.
`CNC(=S)NCCCCCC1CCSS1` (stereo not given) showed a melting point of 64 to 65 °C.
`CCOC(=O)c1c(N)sc2c1CN(C(=O)OCC)C2` gave a melting point of 154 to 156 °C.
`COCOc1ccccc1-c1cc(-c2ccccc2C(=O)OC)c(C#N)c(NC(=O)c2cccs2)n1` gave a melting point of 190 to 191 °C.
For `CN(C)Cc1cccc(-c2cc3c4c(ccn4C(=O)CNC3)c2)c1`, the melting point was 98 to 100 °C.
With `O=C1C(c2ccccc2)=C(c2ccccc2)C(=O)N1Cc1ccc(F)cc1` the melting point was 124 to 125 °C.
Molecule `Cc1ccc(-c2ccc(C)c(CN3CCN(C(c4ccccc4)c4ccccc4)CC3)c2)cc1` has a melting point of 177 °C.
In the case of `CCc1cccc(Cl)c1C(=O)N[C@@H](Cc1ccc(-c2c(C)n(C)c(=O)n(C)c2=O)cc1)C(=O)O`, the melting point was 187 to 190 °C.
For `CC(=O)NCCc1ccc(C=O)cc1`, the melting point was 81 to 83 °C.
Molecule `O=C(O)c1ccc(OCc2ccccc2CCc2ccccc2)cc1` has a melting point of 178 to 180 °C.
`COc1ccc(NN=C(Sc2ccccc2C)C(C)=O)cc1` showed a melting point of 112 to 114 °C.
In the case of `CC(=O)N(C)c1cccc(C(=O)C=CN(C)C)c1`, the melting point was 146 to 148 °C.
With `Cc1cc2ncn(C)c(=O)c2s1` the melting point was 188 to 190 °C.
For `COC(=O)CCCc1ccc(OCCN(C)c2nc3ccccc3o2)cc1`, the melting point was 117 to 119 °C.
Molecule `CCOC(=O)CCC(Oc1cc(OCc2ccsc2)ccc1C(N)=S)c1ccccc1C` (racemic) has a melting point of 134 to 135 °C.
Work on `CC(C)(C)C(=O)Nc1nc(Cl)c2ccnc-2[nH]1` yielded a melting point greater than 210 °C.
`COC(=O)C(=O)Cc1nc([N+](=O)[O-])cn1C` gave a melting point of 186 °C.
Molecule `CCC(C)Nc1c([N+](=O)[O-])cc(C)c(C)c1[N+](=O)[O-]` (stereo not given) has a melting point of 37 to 38.5 °C.
`COP(=O)(Cc1ccc(NC(=O)/C=C/c2cnn(C)c2-c2ccoc2)cc1)OC` gave a melting point of 176 to 177 °C.
With `CC1Cc2c(c(Br)cc(F)c2-n2c(=O)cc(C(F)(F)F)n(C)c2=O)O1` (stereo not given) the melting point was 66 to 75.5 °C.
With `COCCOc1ccc(/C=C/C(=O)NS(=O)(=O)c2ccc(F)cc2)c(Oc2ncc(C(F)(F)F)cc2Cl)c1` the melting point was 183 to 184 °C.
With `NCCc1c(C(=O)O)[nH]c2ccc(Br)cc12` the melting point was 248 to 249 °C.
With `CCOc1ccc(S(=O)(=O)c2ccc(C)nc2Nc2c(C)cc(C)cc2C)cc1` the melting point was 157 to 159 °C.
Work on `CC(C)(C)n1nc2nc3n(c(=O)c2c1N)CCS3` yielded a melting point of 154 to 158 °C.
`CCOC(=O)c1c(C)nn(C)c1S(=O)(=O)NC(=S)Nc1nc(C)cc(OC)n1` showed a melting point of 157 to 158 °C.
`COCCC(=O)Nc1ccc(Cl)c(C2(C)C(=O)N(Cc3ccc(OC)cc3OC)c3ccc(Cl)cc32)c1` (stereo not given) gave a melting point of 168 °C.
`COc1cccc(C(O)CNCCc2ccc(OC)c(OC)c2Cl)c1` (stereo not given) gave a melting point of 95.5 to 96.5 °C.
In the case of `C=C=COc1ccccc1S(N)(=O)=O`, the melting point was 94 to 95 °C.
For `CCOC(=O)c1cn(C2COC2)c2cc(F)c(F)cc2c1=O`, the melting point was 177 to 178 °C.
In the case of `CC(C)C[C@@H](CO)NC(=O)[C@H](Cc1c[nH]cn1)N(C(=O)[C@H](Cc1cccc2ccccc12)NC(=O)OCc1ccccc1)C(=O)[C@@H](N)Cc1cccc2ccccc12`, the melting point was 199 to 200 °C.
In the case of `Cc1nc(N2CCN(Cc3ccccc3)C2=O)sc1C(=O)NCc1ccccc1`, the melting point was 169 to 171 °C.
In the case of `O=C(O)C(Cc1ccccc1)Oc1ccc(-c2ccc(-c3c(Cc4ccccc4)oc4ccccc34)cc2)cc1` (stereo not given), the melting point was 164 to 166 °C.
In the case of `O=C1Nc2cccnc2N(C(=O)NCCN2CCCCC2CN2CCOCC2)c2ccccc21` (stereo not given), the melting point was 167 °C.
Work on `CS(=O)(=O)c1ccc(C(=O)N2CCNC2=Nc2c(Cl)cccc2Cl)cc1` yielded a melting point of 240 to 244 °C.
`CCCCCC(=O)c1cn(S(=O)(=O)c2ccc(C)cc2)c2ccccc12` gave a melting point of 91 to 93 °C.
`CCCCc1oc2ccccc2c1C(=O)N(C)Cc1ccc(-c2ccc(OCC(=O)O)c(Br)c2)cc1` gave a melting point of 72 to 78 °C.
`O=C1NC(=O)C(Cc2ccc(OC3CCN(C(=O)OCc4ccccc4)CC3)cc2)S1` (stereo not given) showed a melting point of 72 to 74 °C.
Molecule `CCCCCc1cc(O)c2c3c(c(=O)oc2c1)SC(C)C3` (stereo not given) has a melting point of 188 to 190 °C.
`Cn1c2ccccc2c2cc(C(=O)C(C)(C)N3CCOCC3)ccc21` gave a melting point of 164 to 166 °C.
With `C=COC(=O)NC1Cc2ccc(-c3ccc(=O)[nH]n3)cc2C1` (stereo not given) the melting point was 205 to 206 °C.
Work on `Oc1ccc(SC2CC3CC(Sc4ccc(O)cc4)C2C3)cc1` (stereo not given) yielded a melting point of 142 to 146 °C.
`Cc1ccc(-c2ccc(-c3ccccc3)s2)s1` showed a melting point of 102 °C.
In the case of `Cc1cc(C(O)=S)cc(N)c1Cc1ccccc1`, the melting point was 153 to 154 °C.
Work on `Cn1nc(C(F)(F)F)c(CSC2=NOC(C)(CCl)C2)c1O` (stereo not given) yielded a melting point of 111 to 112 °C.
In the case of `N#CCCCCn1cnc(NC(=S)NCC(F)(F)F)n1`, the melting point was 136 to 138 °C.
`O=C1CCCC2=C1C(c1ccc(Cl)cc1)C1=C(CCCC1)N2` (stereo not given) showed a melting point of 253 to 254 °C.
Work on `[N-]=[N+]=Nc1cc(Oc2ccc3c(c2)CCN3C(=O)Nc2cccc(C(F)(F)F)c2)ncn1` yielded a melting point of 167 to 168 °C.
With `COc1c2oc(C)cc2cc2c(C)cc(=O)oc12` the melting point was 154 to 155 °C.
